Calls of active or inactive are those of the source. No cut-off for these calls is given here.
Key:
[1] = test system: Mycobacterium tuberculosis; test: Antimicrobial activity against antibiotic-resistant Mycobacterium tuberculosis R46 at 50 ug/ml disc level; format: functional, organism-based
[2] = test system: Mycobacterium tuberculosis; test: Antimicrobial activity against antibiotic-resistant Mycobacterium tuberculosis MTB72 at 50 ug/ml disc level; format: functional, organism-based

COCc1c(C(C)O)cc(O)c(C)c1OC (configuration not stated)
Activity [1]: inactive
Activity [2]: inactive

Source: ChEMBL document CHEMBL2331098, “Unprecedented polyketides from a marine sponge-associated Stachylidium sp” (J Nat Prod, 2013)
